Laboratory results reported in patent publication US6428969B1, “Method for determining oncogenic activity of a substance” (Ludwig Institute for Cancer Research, priority 1997, dated 2002).

Columns and labels:
[1] = tested on: IFNγ-responsive and IFNγ-unresponsive mice; experiment: Histologic comparison of MCA-induced tumors; type: in vivo; conditions: three mouse strains; data not shown
Protocol: Both types of IFNγ insensitive mice developed MCA-induced tumors more frequently than wild-type mice. Tumor formation was detected in IFNγR^−/− mice treated with as little as 6.25 μg MCA.

α chain knockout mice = conditions: mouse, in vivo; cited from earlier work
Stat1−/− mice = experiment: MCA-induced tumor formation at the injection site; type: in vivo, mouse
Protocol: (§1) Groups of IFNγR^−/− mice and STAT1^−/^− mice were generated as described in Examples 1 and 2 and compared to a control group of 129/Sv/Ev wild-type mice. All animals were greater than 6 weeks old (ranging in age from about 6 to about 12 weeks). Each of 20-25 animals per group, were injected subcutaneously with a single dose of MCA at 1.5, 6.25, 25, 100 or 400 μg and monitored for tumor development.

[2] = tested on: perforin-deficient (PKO) mice; conditions: subcutaneous injection; cited from earlier work
wild type 129/Sv/Ev mice = experiment: MCA-induced tumor formation at the injection site; type: in vivo, mouse; conditions: for tumor development: Example 5
Excerpt: (§2) Initially, tumor formation was examined in groups of 15-20 IFNγR^−/^− mice generated as described in Example 1 and wild type inbred 129/Sv/Ev mice as controls. All animals were greater than 6 weeks old (ranging in age from about 6 to about 12 weeks). The 129/Sv/Ev background was specifically chosen for these experiments since 129/Sv/Ev mice are relatively resistant to the tumorigenic actions of MCA and the pure background of the mice insured that in vivo growth of the resulting tumors could be studied using tumor transplantation approaches. The knockout and control mice were injected subcutaneously in a single dose with 25, 100, or 400 μg of the chemical carcinogen 3-methylcholanthrene (MCA) diluted in peanut oil and monitored for tumor development at the injection site for a period of 130 days. The results are shown in FIG. 1A, which represents the percentage of mice in each group with a tumor over 5 mm as a function of the number of days after injection.
as §1

IFNγR−/− mice = experiment: MCA-induced tumor formation at the injection site; type: in vivo, mouse
Excerpt: as §2, §1

p53−/+ mice = conditions: cited from earlier work
CALU-5 = experiment: MHC class I surface expression by flow cytometry; type: cell-based, human; conditions: for MHC Class I Enhancement (MCS): IFNγ 1000 IRU/ml or IFNαA/D 1000 U/ml, 72 hr, mean channel shift vs untreated cells
Protocol: (§3) To address this question IFNγ responsiveness was examined in a variety of tumor cell lines obtained from human tumor cell banks. Established cell lines were cultured in the presence of either buffer, human IFNγ (1000 IRU/ml), or human IFNαA/D (1000 U/ml) for 72 hr followed by quantitation of MHC class I surface expression by flow cytometry with the antibody W6/32 as previously described (Farrar et al., supra). W6/32 is a murine monoclonal antibody specific for a framework region of human MHC Class I and was kindly provided by Dr. Thalachallour Mohanakumar (Washington University, St. Louis, Mo.). IFNγ-dependent STAT1 activation was assessed by treating cells with either PBS or human IFNγ at 10,000 IRU/ml for 5 minutes at 37° C. followed by subjecting 5 μg of nuclear extract to EMSA using a ^32P-labeled GRR probe as described by Greenlund et al., EMBO J. 13:1591, 1994, which is incorporated herein by reference.
(§4) The experiment was repeated with 17 human adenocarcinoma cell lines and the data are shown in Table I below, with the induction of MHC class I expression represented as the mean channel shift between IFNγ-treated cells and untreated cells. […] The CALU-5 cell line was also insensitive to IFNα. None of the cell lines examined show IFNα-specific unresponsiveness.

CALU-3 = experiment: MHC class I surface expression by flow cytometry; type: cell-based, human; conditions: IFNγ 1000 IRU/ml or IFNαA/D 1000 U/ml, 72 hr, mean channel shift vs untreated cells
Protocol: as §3, §4

SK-LC-4 = experiment: MHC class I surface expression by flow cytometry; type: cell-based, human; conditions: IFNγ 1000 IRU/ml or IFNαA/D 1000 U/ml, 72 hr, mean channel shift vs untreated cells
Protocol: as §3, §4

SK-LC-2 = experiment: MHC class I surface expression by flow cytometry; type: cell-based, human; conditions: for MHC Class I Enhancement (MCS): IFNγ 1000 IRU/ml or IFNαA/D 1000 U/ml, 72 hr, mean channel shift vs untreated cells
Protocol: as §3, §4

SK-LC-10 = experiment: MHC class I surface expression by flow cytometry; type: cell-based, human; conditions: IFNγ 1000 IRU/ml or IFNαA/D 1000 U/ml, 72 hr, mean channel shift vs untreated cells
Protocol: as §3, §4

A457 = experiment: MHC class I surface expression by flow cytometry; type: cell-based, human; conditions: IFNγ 1000 IRU/ml or IFNαA/D 1000 U/ml, 72 hr, mean channel shift vs untreated cells
Protocol: as §3, §4

SK-LC-12 = experiment: MHC class I surface expression by flow cytometry; type: cell-based, human; conditions: IFNγ 1000 IRU/ml or IFNαA/D 1000 U/ml, 72 hr, mean channel shift vs untreated cells
Protocol: as §3, §4

SK-LC-11 = experiment: MHC class I surface expression by flow cytometry; type: cell-based, human; conditions: IFNγ 1000 IRU/ml or IFNαA/D 1000 U/ml, 72 hr, mean channel shift vs untreated cells
Protocol: as §3, §4

SK-LC-19 = experiment: MHC class I surface expression by flow cytometry; type: cell-based, human; conditions: for MHC Class I Enhancement (MCS): SK-LC-19, IFNγ 1000 IRU/ml or IFNαA/D 1000 U/ml, 72 hr, mean channel shift vs untreated cells
Protocol: as §3, §4

SK-LC-7 = experiment: MHC class I surface expression by flow cytometry; type: cell-based, human; conditions: for MHC Class I Enhancement (MCS): IFNγ 1000 IRU/ml or IFNαA/D 1000 U/ml, 72 hr, mean channel shift vs untreated cells
Protocol: as §3, §4

SK-LC-20 = experiment: MHC class I surface expression by flow cytometry; type: cell-based, human; conditions: IFNγ 1000 IRU/ml or IFNαA/D 1000 U/ml, 72 hr, mean channel shift vs untreated cells
Protocol: as §3, §4

A549 = experiment: MHC class I surface expression by flow cytometry; type: cell-based, human; conditions: IFNγ 1000 IRU/ml or IFNαA/D 1000 U/ml, 72 hr, mean channel shift vs untreated cells
Protocol: as §3, §4

SK-LC-9 = experiment: MHC class I surface expression by flow cytometry; type: cell-based, human; conditions: IFNγ 1000 IRU/ml or IFNαA/D 1000 U/ml, 72 hr, mean channel shift vs untreated cells
Protocol: as §3, §4

SK-LC-15 = experiment: MHC class I surface expression by flow cytometry; type: cell-based, human; conditions: IFNγ 1000 IRU/ml or IFNαA/D 1000 U/ml, 72 hr, mean channel shift vs untreated cells
Protocol: as §3, §4

SK-LC-16 = experiment: MHC class I surface expression by flow cytometry; type: cell-based, human; conditions: IFNγ 1000 IRU/ml or IFNαA/D 1000 U/ml, 72 hr, mean channel shift vs untreated cells
Protocol: as §3, §4

SK-LC-1 = experiment: MHC class I surface expression by flow cytometry; type: cell-based, human; conditions: IFNγ 1000 IRU/ml or IFNαA/D 1000 U/ml, 72 hr, mean channel shift vs untreated cells
Protocol: as §3, §4

SK-LU-1 = experiment: MHC class I surface expression by flow cytometry; type: cell-based, human; conditions: IFNγ 1000 IRU/ml or IFNαA/D 1000 U/ml, 72 hr, mean channel shift vs untreated cells
Protocol: as §3, §4

[3] = tested on: 33 melanoma and 17 lung tumor cell lines classified as non-adenocarcinoma; experiment: Preliminary study of IFNγ sensitivity of tumor cell lines; type: cell-based, human; conditions: of each group (33 melanoma, 17 lung non-adenocarcinoma lines), data not shown
Protocol: as §3

RADgR.28.mgR cells = experiment: Antiproliferative or anti-metabolic effects of IFNγ in culture; type: cell-based, mouse; conditions: IFNγ alone or in combination with other cytokines, in vitro; data not shown
Excerpt: Having identified the tumor cell as the major target of IFNγ's actions, experiments were designed to define the mechanism underlying the rejection process. IFNγ can induce an antiproliferative state in certain cell types.

[4] = 400 μg MCA, single s.c. dose, at 130 days

Molecule | tumor induction (p53−/+ mice) | MHC Class I Enhancement (MCS) (CALU-5) | MHC Class I Enhancement (MCS) (CALU-3) | MHC Class I Enhancement (MCS) (SK-LC-4) | MHC Class I Enhancement (MCS) (SK-LC-2) | MHC Class I Enhancement (MCS) (SK-LC-10) | MHC Class I Enhancement (MCS) (A457) | MHC Class I Enhancement (MCS) (SK-LC-12) | MHC Class I Enhancement (MCS) (SK-LC-11) | MHC Class I Enhancement (MCS) (SK-LC-19) | MHC Class I Enhancement (MCS) (SK-LC-7) | MHC Class I Enhancement (MCS) (SK-LC-20) | MHC Class I Enhancement (MCS) (A549) | MHC Class I Enhancement (MCS) (SK-LC-9) | MHC Class I Enhancement (MCS) (SK-LC-15) | MHC Class I Enhancement (MCS) (SK-LC-16) | MHC Class I Enhancement (MCS) (SK-LC-1) | MHC Class I Enhancement (MCS) (SK-LU-1) | other results
Cc1ccc2cc3c(ccc4ccccc43)c3c2c1CC3 [MCA, 3-methylcholanthrene] | – | – | – | – | – | – | – | – | – | – | – | – | – | – | – | – | – | – | histology of induced tumors [1]: histologically indistinguishable fibrosarcomas; tumors in α chain knockout mice compared with wild-type controls (α chain knockout mice): more tumors; frequency of tumors relative to IFNγR−/− mice (Stat1−/− mice; at every dose examined): approximately two times; lowest MCA dose at which tumors could be detected (Stat1−/− mice; single s.c. dose, within 130 days): 1.6 μg MCA/mouse; sarcomas at the injection site compared with normal MCA-treated mice [2]: higher frequency and with accelerated onset of tumor; tumor development (wild type 129/Sv/Ev mice; 25 μg MCA): not; tumor development (wild type 129/Sv/Ev mice; 400 μg MCA): developed tumors; percentage of mice in which tumors were detected (over 5 mm) (wild type 129/Sv/Ev mice; [4]): 20%; MCA dose at which tumors formed (wild type 129/Sv/Ev mice; single s.c. dose, 130 days, Example 4): ≥ 100 µg; mice forming tumors at the lower MCA dose (IFNγR−/− mice; 25 μg MCA s.c., Example 4): high percentage; percentage of mice that developed tumors (over 5 mm) (IFNγR−/− mice; [4]): 50%; time at which tumors were detected (IFNγR−/− mice; all dose groups (25, 100, 400 μg MCA s.c.)): 90 days; tumor development compared with wild-type mice (IFNγR−/− mice; all doses examined (25, 100, 400 μg)): more frequently and at earlier times; lowest MCA dose at which tumor formation was detected (IFNγR−/− mice; single s.c. dose, within 130 days, Example 5): 6.25 µg
C1CC2OC2CC1C1CO1 (stereo not drawn) [VCD, 4-vinyl-1-cyclohexene diepoxide] | tumors were induced | – | – | – | – | – | – | – | – | – | – | – | – | – | – | – | – | – | –
COc1ccc(C)cc1N [p-cresidine] | tumors were induced | – | – | – | – | – | – | – | – | – | – | – | – | – | – | – | – | – | –
IFNα | – | 0.0 | 17.0 | 36.7 | 16.7 | 22.6 | 27.1 | 12.7 | 13.8 | 25.1 | 37.2 | 25.9 | 21.8 | 53.4 | 79.6 | 10.9 | 18.7 | 16.7 | sensitivity to IFNα (CALU-5): insensitive
IFNγ: cytokine interferonγ; human IFNγ used on human tumor cell lines (protein, UniProt P01579 24-161, looked up) Interferon gamma: QDPYVKEAENLKKYFNAGHSDVADNGTLFLGILKNWKEESDRKIMQSQIVSFYFKLFKNFKDDQSIQKSVETIKEDMNVKFFNSNKKKRDDFEKLTNYSVTDLNVQRKAIHELIQVMAELSPAAKTGKRKRSQMLFRG | – | 0.0 | 30.4 | 59.5 | 0.0 | 31.7 | 27.7 | 30.4 | 25.3 | 0.0 | 0.0 | 25.6 | 36.9 | 49.3 | 91.3 | 27.0 | 16.9 | 47.1 | share of cell lines showing a quantitative reduction in IFNγ sensitivity [3]: approximately 33%; antiproliferative or anti-metabolic effects (RADgR.28.mgR cells): no antiproliferative or anti-metabolic effects; responsiveness to IFNγ (initiation of IFNγ-signaling or IFNγ dependent biologic response) (CALU-5): totally unresponsive; responsiveness to IFNγ (initiation of IFNγ-signaling or IFNγ dependent biologic response) (SK-LC-2): totally unresponsive; responsiveness to IFNγ (initiation of IFNγ-signaling or IFNγ dependent biologic response) (SK-LC-19; SL-LC-19 as printed): totally unresponsive; responsiveness to IFNγ (initiation of IFNγ-signaling or IFNγ dependent biologic response) (SK-LC-7): totally unresponsive
